According to the supplement of paper PMC10307832:

What follows are cell lines tested with N#CC1(c2ccc(NC(=O)c3cccnc3NCc3ccncc3)cc2)CCCC1 [Apatinib] (assay: relative viability (nuclei count vs DMSO), 5 days (fraction); higher = more cells survive). Conditions: 0.08 µM.
Summary of the method: (§1)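 Lung cancer cell lines received five library-drug doses (not always all listed) spaced by √10, pinned on vehicle-anchored 1536-well plates after an overnight stay at 37 °C. Five days later, with no medium change, nuclei were Hoechst-stained, imaged at 4× and counted with MetaXpress. Viability is treated-well nuclei relative to vehicle-well nuclei, as a median across plates. Passing plates had control CV below 25% and at least one doubling.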

First: NCI-H2170
Second: NCI-H2228
The relative viability of the first is lower: 0.981 for the first, 1.13 for the second.

First: NCI-H2347
Second: NCI-H2405
The relative viability of the first is higher: 1.03 for the first, 0.954 for the second.

First: NCI-H3122
Second: PC-3 [JPC-3]
The relative viability of the first is lower: 1 for the first, 1.06 for the second.

PC-14 and RERF-LC-KJ are the same in relative viability: 1.03 for the first, 1.03 for the second.

First: SK-LU-1
Second: SK-MES-1
The relative viability of the first is higher: 1.09 for the first, 1.02 for the second.

First: SW 1573
Second: UMC-11
The relative viability of the first is higher: 1.08 for the first, 1.06 for the second.

Same assay, conditions: 0.253 µM

Going from NCI-H2170 to NCI-H2228, the relative viability rises from 1.01 to 1.08.

Compared with NCI-H2347, NCI-H2405 is higher in relative viability: 0.964 for the first, 1.04 for the second.

Compared with NCI-H3122, PC-3 [JPC-3] is lower in relative viability: 0.988 for the first, 0.983 for the second.

First: PC-14
Second: RERF-LC-KJ
The relative viability of the first is higher: 1.05 for the first, 0.978 for the second.

First: SK-LU-1
Second: SK-MES-1
The relative viability of the first is higher: 1.08 for the first, 1.06 for the second.

Going from SW 1573 to UMC-11, the relative viability falls from 1.12 to 0.866.

Same assay, conditions: 0.8 µM

Compared with NCI-H2170, NCI-H2228 is higher in relative viability: 0.909 for the first, 0.993 for the second.

Compared with NCI-H2347, NCI-H2405 is higher in relative viability: 1.03 for the first, 1.07 for the second.

First: NCI-H3122
Second: PC-3 [JPC-3]
The relative viability of the first is higher: 0.98 for the first, 0.915 for the second.

Compared with PC-14, RERF-LC-KJ is higher in relative viability: 0.829 for the first, 0.933 for the second.

First: SK-LU-1
Second: SK-MES-1
The relative viability of the first is higher: 0.992 for the first, 0.978 for the second.

Going from SW 1573 to UMC-11, the relative viability rises from 0.941 to 0.942.

Same assay, conditions: 2.53 µM

Going from NCI-H2170 to NCI-H2228, the relative viability falls from 0.89 to 0.867.

Compared with NCI-H2347, NCI-H2405 is higher in relative viability: 0.858 for the first, 0.909 for the second.

Compared with NCI-H3122, PC-3 [JPC-3] is lower in relative viability: 0.969 for the first, 0.955 for the second.

Going from PC-14 to RERF-LC-KJ, the relative viability falls from 0.968 to 0.847.

First: SK-LU-1
Second: SK-MES-1
The relative viability of the first is higher: 0.949 for the first, 0.933 for the second.

First: SW 1573
Second: UMC-11
The relative viability of the first is lower: 0.839 for the first, 0.899 for the second.

Same assay, conditions: 8 µM

Going from NCI-H2170 to NCI-H2228, the relative viability falls from 0.886 to 0.846.

Going from NCI-H2347 to NCI-H2405, the relative viability rises from 0.933 to 0.955.

Compared with NCI-H3122, PC-3 [JPC-3] is lower in relative viability: 1.03 for the first, 0.985 for the second.

Compared with PC-14, RERF-LC-KJ is lower in relative viability: 0.956 for the first, 0.802 for the second.

Going from SK-LU-1 to SK-MES-1, the relative viability falls from 0.931 to 0.884.

Compared with SW 1573, UMC-11 is higher in relative viability: 0.872 for the first, 0.885 for the second.

What follows are cell lines tested with CN(C)C(=N)NC(=N)N [Metformin] in the same assay as above. Conditions: 10 µM.
Summary of the method: as §1

Going from NCI-H2170 to NCI-H2228, the relative viability rises from 0.787 to 0.913.

Compared with NCI-H2347, NCI-H2405 is lower in relative viability: 0.918 for the first, 0.756 for the second.

First: NCI-H3122
Second: PC-3 [JPC-3]
The relative viability of the first is lower: 0.817 for the first, 0.898 for the second.

Going from PC-14 to RERF-LC-KJ, the relative viability falls from 1.01 to 0.817.

Compared with SK-LU-1, SK-MES-1 is lower in relative viability: 0.997 for the first, 0.9 for the second.

Going from SW 1573 to UMC-11, the relative viability falls from 1.13 to 0.961.

Same assay, conditions: 31.62 µM

Going from NCI-H2170 to NCI-H2228, the relative viability rises from 0.882 to 1.08.

Going from NCI-H2347 to NCI-H2405, the relative viability falls from 1.05 to 1.04.

Compared with NCI-H3122, PC-3 [JPC-3] is higher in relative viability: 0.939 for the first, 0.986 for the second.

Compared with PC-14, RERF-LC-KJ is lower in relative viability: 1.09 for the first, 0.976 for the second.

Going from SK-LU-1 to SK-MES-1, the relative viability falls from 0.976 to 0.875.

Going from SW 1573 to UMC-11, the relative viability falls from 1.1 to 1.02.

Same assay, conditions: 100 µM

Compared with NCI-H2170, NCI-H2228 is lower in relative viability: 0.907 for the first, 0.803 for the second.

First: NCI-H2347
Second: NCI-H2405
The relative viability of the first is higher: 0.969 for the first, 0.91 for the second.

Compared with NCI-H3122, PC-3 [JPC-3] is higher in relative viability: 0.891 for the first, 1.01 for the second.

Compared with PC-14, RERF-LC-KJ is lower in relative viability: 0.997 for the first, 0.888 for the second.

First: SK-LU-1
Second: SK-MES-1
The relative viability of the first is higher: 0.967 for the first, 0.952 for the second.

Compared with SW 1573, UMC-11 is higher in relative viability: 1.01 for the first, 1.06 for the second.

Same assay, conditions: 316.23 µM

Compared with NCI-H2170, NCI-H2228 is lower in relative viability: 0.957 for the first, 0.907 for the second.

Going from NCI-H2347 to NCI-H2405, the relative viability rises from 0.944 to 0.971.

First: NCI-H3122
Second: PC-3 [JPC-3]
The relative viability of the first is lower: 0.819 for the first, 0.987 for the second.

Compared with PC-14, RERF-LC-KJ is lower in relative viability: 0.971 for the first, 0.786 for the second.

Compared with SK-LU-1, SK-MES-1 is lower in relative viability: 0.901 for the first, 0.826 for the second.

First: SW 1573
Second: UMC-11
The relative viability of the first is lower: 0.843 for the first, 0.96 for the second.

Same assay, conditions: 1000 µM

First: NCI-H2170
Second: NCI-H2228
The relative viability of the first is lower: 1.01 for the first, 1.22 for the second.

Going from NCI-H2347 to NCI-H2405, the relative viability falls from 1.1 to 0.931.

First: NCI-H3122
Second: PC-3 [JPC-3]
The relative viability of the first is lower: 0.872 for the first, 1.02 for the second.

First: PC-14
Second: RERF-LC-KJ
The relative viability of the first is higher: 0.944 for the first, 0.926 for the second.

Compared with SK-LU-1, SK-MES-1 is lower in relative viability: 1.01 for the first, 0.884 for the second.

Work on SW 1573 yielded a relative viability of 0.864.
